Experimental data from publication PMC8689140 (Frontiers in Pharmacology, 2021).

How the values were obtained:
rat VMAT2 = biological target: T1, rat VMAT2 (Rattus norvegicus, UniProt Q01827); test: [3H]DA uptake assay in rat striatal synaptosomes; assay type: biochemical
T1 construct: in vitro [^3H]DA uptake assay in rat striatal synaptosomes; from tissue; host or cells: rat striatal synaptosomes / vesicular suspension
Procedure: [^3H]DA (dihydroxyphenylethyethylamine, 3,4-[ring-2,5,6-^3H]; specific activity, 28.0 Ci/mmol) was purchased from Perkin Elmer. […] After drying, the filter plate was sealed with unifilter-96 back sealing tape and added 50 μl of microscint-20 (Perkin Elmer), then sealed the top of the filter plate with TopSeal-A. The radioactivity was measured by a TopCount scintillation counter. GraphPad Prism 5.0 was used to analyze data.

[1] = Bidirectional permeability in Caco-2 cell monolayers; assay type: in vitro ADME; conditions: human, Caco-2, with or without verapamil 30 μM (range covers both); 2.0, 10.0, and 100 µM, presence or absence of verapamil 30 μM, 2 h; read-out: mean Papp (AP→BL)
Procedure: (§1) Caco-2 cells (ATCC, United States) were seeded on a 96-multiwell insert system (Corning, United States) at a density of 1.0 × 10^5 cells/cm^2. After about 24 days of culture, […] permeability was measured to evaluate the integrity of Caco-2 cell monolayers, and the percent of lucifer yellow in basolateral well which should be less than 1%. Before initiating the transport studies, the cell monolayers were washed with warm HBSS. […] Aliquots from the receiver chamber were collected at 2 h after incubation and stored at −20°C until analysis via LC-MS/MS. All experiments were conducted in triplicate. Permeability coefficient (Papp) and the efflux ratio (ER = P app (BL→AP)/P app (AP→BL)) were calculated.

Caco-2 cell monolayers = test: as above; assay type: in vitro ADME
Procedure: as §1

[2] = PK in dogs after single oral or intravenous dose; assay type: in vivo, dog
Procedure: Male beagle dogs were randomly divided into four groups. […] The dogs were fasted for 12 h before treatment and 4 h after treatment, but they were granted free access to water. Blood was collected from the vein before administration and 0.083 (only for injection groups), 0.25, 0.5, 1, 2, 3, 4, 6, 8, 12 and 24 h, and placed it in heparinized tubes, and centrifuged it at 8,000 rpm for 10 min at 4°C to separate the plasma, which we stored at −20 °C until analysis. The plasma samples were pretreated by protein precipitation with acetonitrile and quantitated by the validated LC-MS/MS (Shimadzu Exion-Triple Quad 4500) method.
The system consisted of an Exion UHPLC system (Shimadzu, Japan) and a Triple Quad 4500 mass spectrometer (AB Sciex, United States) with an electrospray ionization source. Multiple reaction monitoring in the positive ionization mode was applied to measure analytes. Chromatographic separation was performed on a Acquity BEH C18 column (50 × 2.1 mm i. d., 1.7 μm, Waters, United States). The mobile phase was composed of 0.1% FA in water (A) and 0.1% FA in acetonitrile (B), and the flow rate was 0.4 ml/min. The elution conditions were the following linear gradient: 0–0.4 min: 90% A, 0.4–0.6 min: 60% A, 0.6–1.2 min: 10% A, 1.2–2.2 min: 10% A, 2.2–2.3 min: 90% A, 2.3–3.0 min: 90% A. The optimized parameters were as follows: the spray voltage 5.5 kV, source temperature 550 °C, pressure of source gas 1 and gas 2: 55psi, pressure of curtain gas: 30psi, and the DP, EP and CE voltage was 30,6 and 40 eV, respectively.

[3] = Metabolite identification in liver microsomes from humans, dogs and rats (stated across species); assay type: in vitro ADME, human, dog, rat; conditions: liver microsomes from humans, rats, and dogs
Procedure: Human, rat and dog liver microsomes were carefully thawed on ice prior to the experiment and diluted to 1 mg/ml in100 mM sodium phosphate buffer (pH 7.4) containing 10 mM magnesium chloride. […] After 3 min of preincubation at 37°C, the reactions were initiated by adding 20 µL of NADPH (20 mM) and then incubated at 37°C in a shaking water bath for 60 min. All samples were prepared in duplicates. The reactions were terminated by adding 600 µl of ice-cold acetonitrile and stored at −20°C until analysis. Control samples without NADPH and 0-time point samples were included. As a positive control, testosterone (10 µM) which was metabolized to produce the hydroxylation metabolite was used as a substrate to confirm the activity of the incubation system. Next, the samples were centrifuged at 13,000 rpm for 10 min, the supernatant was separated and evaporated to dryness under a nitrogen stream. The residue was resuspended in 100 μl of acetonitrile, after centrifugation, the supernatants were analyzed by UPLC–UV-HRMS.
The analysis was performed on Acquity UPLC system coupled with a diode array detector (Waters Corporation, United States) and Q Exactive™ Orbitrap HRMS (Thermo Electron Corporation, United States). […]
HRMS were operated at positive ion mode using a heating electrospray ionization source (HESI). […] The metabolites were detected by full MS/dd-MS^2 analysis from m/z 100 to m/z 1,000. […]

[4] = test system: locomotor activity of rats; test: Dose-dependent effects on locomotor activity in rats; assay type: in vivo, rat; conditions: for reduction rate (RR) of locomotion: 0.5-[…] after dosing
Procedure: Before administration, animals were transported to the test room and allowed to acclimate for at least 1 h. Immediately after drug administration, rats were placed into activity chambers to assess their basal locomotor activity using the TopScan monitoring system. The total travel distance was recorded from 0.5 to 1.5 h after administration in intervals of 10 min.

T1 sequence (Q01827 whole entry): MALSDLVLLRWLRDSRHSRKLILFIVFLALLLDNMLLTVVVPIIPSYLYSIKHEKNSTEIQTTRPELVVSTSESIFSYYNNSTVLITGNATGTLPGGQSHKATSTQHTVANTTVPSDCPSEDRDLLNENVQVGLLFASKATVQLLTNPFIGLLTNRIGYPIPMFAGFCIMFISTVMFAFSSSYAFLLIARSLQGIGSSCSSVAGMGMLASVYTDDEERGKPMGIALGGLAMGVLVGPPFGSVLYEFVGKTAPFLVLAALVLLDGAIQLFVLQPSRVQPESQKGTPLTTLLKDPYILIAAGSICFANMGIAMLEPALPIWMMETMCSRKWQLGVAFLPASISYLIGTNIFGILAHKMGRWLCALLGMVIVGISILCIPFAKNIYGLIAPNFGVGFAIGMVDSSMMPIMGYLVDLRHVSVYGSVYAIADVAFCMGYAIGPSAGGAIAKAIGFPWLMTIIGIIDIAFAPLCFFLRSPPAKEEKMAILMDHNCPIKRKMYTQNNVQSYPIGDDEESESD

COc1cc2c(cc1OCC(F)(F)F)CCN1CC(CC(C)C)C(O)CC21 (single isomer, unassigned; (+)) [(+)-13e, (+)-9-(2,2,2-trifluoroethoxy)-α-dihydrotetrabenazine]
IC90 (rat VMAT2; [3H]DA uptake, rat striatal synaptosomes): 0.0341 µM | inhibitory effect on [3H]DA uptake stronger than that of HTBZ (rat VMAT2; ratio of IC50 vs HTBZ): approximately 5 fold | Papp A→B at 2 h [1]: 26 to 35 ×10⁻⁶ cm/s | permeability across the Caco-2 cell monolayer (Caco-2 cell monolayers): high permeability | substrate of P-gp or breast cancer resistance protein (BCRP) (Caco-2 cell monolayers; efflux not observed): unlikely to be a substrate | V, V/F ([2]; dog, single intravenous dose 0.6 μmol/kg): 5.4 ± 1.1 L/kg | clearance ([2]; dog, single intravenous dose 0.6 μmol/kg, read-out: Cl, Cl/F (converted)): 23.3 mL/min/kg | V, V/F ([2]; dog, single oral dose 3 μmol/kg): 18.8 ± 9.2 L/kg | Cmax smaller than that of VBZ ([2]; dogs, oral administration at an equivalent dose): 2.9 fold | Cmax larger than that of HTBZ ([2]; dogs, oral administration at an equivalent dose (HTBZ from VBZ)): 7.7 fold | bioavailability ([2]; male, beagle, dog, plasma, dogs, oral 3 μmol/kg vs intravenous 0.6 μmol/kg, read-out: absolute oral bioavailability): 75.9% | CL/F ([2]; male, beagle, plasma, 3 umol/kg, dog, single oral dose 3 μmol/kg): 31.7 mL/min/kg | O-detrifluoroethylation at the nine position [3]: did not occur | starting effective dose ([4]; SD rats, first dose with significant inhibition of locomotor activity vs NS (p < 0.05)): 0.32 µmol/kg | reduction rate (RR) of locomotion ([4]; SD rats, single oral gavage 0.32 μmol/kg): 58.6% | reduction rate (RR) of locomotion ([4]; SD rats, single oral gavage 1.3 μmol/kg): 95.5% | PD effect stronger than that of VBZ in vivo ([4]; rat locomotor activity): approximately 4 fold
